# Reference: patent publication US5019647A, “Gastrin releasing peptide antagonist” (Merck & Co., Inc., priority 1988, dated 1991)
# pIC50: −log10 of the molar value. Residues, ends and D or L forms follow the SMILES beside them. *: point of attachment. X1 = CCOC[C@H](CC(C)C)N*
# How the values were obtained:
# GRP receptor = biological target: T1, GRP receptor (Mus musculus, UniProt P21729); assay: Procedure A: Binding Inhibition Studies (competitive binding with [3H-Phe15] GRP15-27); details: Swiss 3T3 cells; [3H-Phe15] GRP15-27 at 3 nM; 60 minutes at 15° C.; read-out: blocks binding of the radioligand, IC50
# T1 construct: Swiss 3T3 fibroblasts were used in these tests as the source of GRP receptor; endogenous in cells; host or cells: Swiss 3T3 cells (intact confluent monolayers), obtained from Dr. K. Brown
# T1 sequence (P21729 whole entry): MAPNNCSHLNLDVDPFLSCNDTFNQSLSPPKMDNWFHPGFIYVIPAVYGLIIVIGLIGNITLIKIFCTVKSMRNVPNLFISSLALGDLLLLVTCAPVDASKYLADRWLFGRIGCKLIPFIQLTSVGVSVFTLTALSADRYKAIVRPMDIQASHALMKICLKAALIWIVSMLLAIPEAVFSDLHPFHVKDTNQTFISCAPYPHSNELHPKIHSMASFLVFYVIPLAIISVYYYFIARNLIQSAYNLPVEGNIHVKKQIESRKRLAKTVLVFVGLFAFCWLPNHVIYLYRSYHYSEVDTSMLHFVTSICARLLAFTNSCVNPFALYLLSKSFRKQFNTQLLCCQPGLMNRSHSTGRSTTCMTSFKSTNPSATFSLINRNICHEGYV
# Procedure: (§1) The activity of the peptide derivatives of the present invention as GRP antagonists was determined in competitive binding assays with a radio-active GRP derivative. Swiss 3T3 fibroblasts were used in these tests as the source of GRP receptor. Because these cells respond to GRP binding with a rapid increase in DNA synthesis, compounds that bind to the GRP receptor can also be tested for their ability to stimulate DNA synthesis. New DNA synthesis is one of the early steps in cell division and is widely accepted as a measure of mitogenicity or cell growth. […] Compounds which block DNA synthesis are mitogenic antagonists.
# Swiss 3T3 cells, obtained from Dr. K. Brown (Institute of Animal Physiology, Cambridge, U.K.), were grown to confluency in Costar 12 well plates containing DMEM (Gibco) supplemented with 10% fetal bovine serum, 2 mM glutamine and 1% penicillin-streptomycin. The cells were washed twice with binding buffer [1:1 DMEM: Waymouths MB752/1 medium, plus 1 mg/ml BSA (Fraction V, Calbiochem)]. The antagonist was dissolved in 10 mM HCl, and diluted to the appropriate concentration in binding buffer. The antagonist was then added to the cells, followed by [3H-Phe^15 ] GRP15-27 at a final concentration of 3 nM. […]
# Swiss 3T3 cells = assay: Procedure C: Mitogenesis Inhibition (GRP-stimulated 3H-thymidine incorporation); format: cell-based; details: 3 nM human GRP, read-out: blocks mitogenic stimulation of human GRP, IC50
# Procedure: as §1
# Swiss 3T3 cells were grown in monolayer culture in 24 -well plates (Costar) in serum-free DMEM for 48 hours, at which time the GRP or a GRP homologue, the antagonist and 23 nM ^3 H-thymidine were added. After an additional 48 hours, the cell monolayer was washed twice with PBS, and the cells were then removed with 1 ml 10×trypsin containing 5 mM EDTA. The cells were harvested with a Skatron filter apparatus, and the filters counted in a scintillation counter.
# GRP receptor on SCLC = biological target: T2, GRP receptor on SCLC (Homo sapiens, UniProt P30550); assay: Procedure D: Stimulation of Ca2+ Release in SCLC (Fura-2 fluorescence, GRP 14-27 challenge); format: cell-based; details: H345 SCLC cells; 100 nM GRP14-27; read-out: blocks the Ca2+ response elicited by GRP14-27, IC50
# T2 construct: approximately 1×10^8 H345 SCLC cells; endogenous in cells; host or cells: H345 SCLC cells
# T2 sequence (P30550 whole entry): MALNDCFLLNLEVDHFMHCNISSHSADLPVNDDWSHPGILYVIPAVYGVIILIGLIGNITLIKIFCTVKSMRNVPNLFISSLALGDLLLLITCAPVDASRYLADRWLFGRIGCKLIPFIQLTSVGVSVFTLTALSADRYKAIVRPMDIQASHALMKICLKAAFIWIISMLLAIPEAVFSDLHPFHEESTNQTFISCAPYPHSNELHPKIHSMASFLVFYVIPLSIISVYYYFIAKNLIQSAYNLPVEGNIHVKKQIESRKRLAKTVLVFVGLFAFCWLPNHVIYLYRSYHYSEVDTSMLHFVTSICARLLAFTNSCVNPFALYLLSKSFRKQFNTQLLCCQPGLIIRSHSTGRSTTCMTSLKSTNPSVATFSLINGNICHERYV
# Procedure: Following the procedure of Heikkila et al., J Biol. Chem. 262 16456 (1987), approximately 1×10^8 H345 SCLC cells, maintained in RPMI-1640 (Ro) medium supplemented with selenium, insulin, and transferrin, were harvested by settling and washed with Ro. They were then resuspended in 2 ml Ro, to which 1.2 nmol Fura-2/AM per 10^6 cells was added. After a 15 minute incubation at 37° C., the cells were diluted to 10 ml with Ro and incubated for 1 hour at 37° C., the cells were then centrifuged and resuspended in HEPES-saline (140 mM NaCl, 5mM KCl, 5mM glucose, 1 mM CaCl2, 1 mM MgCl2, 20 mM HEPES, pH 7.4) at a density of 2.5-5×10^6 cells/ml. The cells were kept on ice for up to 2 hours before being used. Ca^2+ measurements were performed at 37° C. in an Aminco SPF-500 fluorimeter. The excitation wavelength was 340 nm, the emission wavelength 510 nm. Two ml of cell suspension was periodically resuspended in a 3 ml plastic cuvette. They were equilibrated at 37° for at least 5 minutes data was collected. After a stable baseline was established, the compound of interest was added, and data was collected for approximately 5 minutes. […] The cells were then lysed with 4 μl 10% Triton X-100 to measure peak fluorescence. Baseline fluorescence was measured after the subsequent addition of 40 μl 2M tris (pH 9.5) and 64 μl 0.2M EGTA.
smiles,measurement,setting,value
"CCOC[C@H](CC(C)C)NC(=O)[C@H](Cc1c[nH]cn1)NC(=O)CNC(=O)[C@@H](NC(=O)[C@H](C)NC(=O)[C@H](Cc1c[nH]c2ccccc12)NC(=O)[C@H](Cc1c[nH]cn1)NC(C)=O)C(C)C [Example 1, Ac-His-Trp-Ala-Val-Gly-His-NHCHCH2 OCH5] (Ac-HWAVGH-X1)",pIC50,GRP receptor,~8.30
same,pIC50,Swiss 3T3 cells,~7.70
same,pIC50,GRP receptor on SCLC,~6.52
